Tests used:
[1] = molecular target: T1, GST tagged LXRalpha LBD (ligand binding domain) (Homo sapiens, UniProt Q13133); assay: LanthaScreen TR-FRET Liver X Receptor Coactivator Assay, LXR alpha-LBD (co-activator recruitment; IP and % Emax relative to T0901317); type: biochemical; details: for EC50 / LXR alpha IP (nM): Inflection Point of co-activator recruitment, LXR alpha-LBD, TR-FRET; for Emax: efficacy at max dose in relation to reference T0901317, LXR alpha-LBD, read-out: LXR alpha actiivty at max dose (%)
T1 construct: purchased Invitrogen pv4655
T1 sequence (Q13133 209-447 limits assumed): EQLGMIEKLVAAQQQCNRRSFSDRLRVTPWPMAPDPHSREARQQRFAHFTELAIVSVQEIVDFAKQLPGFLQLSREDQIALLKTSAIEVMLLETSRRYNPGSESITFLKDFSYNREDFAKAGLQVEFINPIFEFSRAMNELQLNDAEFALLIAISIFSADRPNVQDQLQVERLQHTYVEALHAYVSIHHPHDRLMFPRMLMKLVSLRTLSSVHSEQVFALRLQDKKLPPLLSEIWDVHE
Summary of the method: (§1)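 LXR LBD protein was added to test compounds, then a mix of fluorescein-labelled coactivator peptide and terbium anti-GST antibody. After incubation at room temperature, TR-FRET was read. Inflection point and Emax were derived relative to the reference dual agonist T0901317.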

[2] = molecular target: T2, GST tagged LXRbeta LBD (ligand binding domain) (Homo sapiens, UniProt P55055); assay: LanthaScreen TR-FRET Liver X Receptor Coactivator Assay, LXR beta-LBD (co-activator recruitment; IP and % Emax relative to T0901317); type: biochemical; details: for EC50: Inflection Point of co-activator recruitment, LXR beta-LBD, TR-FRET; for Emax: efficacy at max dose in relation to reference T0901317, LXR beta-LBD, read-out: LXR beta actiivty at max dose (%)
T2 construct: purchased Invitrogen pv4658.pps
T2 sequence (P55055 222-460 limits assumed): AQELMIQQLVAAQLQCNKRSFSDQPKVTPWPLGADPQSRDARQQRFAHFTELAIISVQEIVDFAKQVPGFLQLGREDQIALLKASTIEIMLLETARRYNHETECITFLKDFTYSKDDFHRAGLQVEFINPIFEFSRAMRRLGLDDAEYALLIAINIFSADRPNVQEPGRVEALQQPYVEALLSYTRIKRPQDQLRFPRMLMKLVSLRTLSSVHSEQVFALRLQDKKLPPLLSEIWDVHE
Summary of the method: as §1

EC50 [1] [nM]	Emax [1] [%]	EC50 [2] [nM]	Emax [2] [%]	LXR alpha IP (nM) [1]	SMILES
3100	22	473	46		CN(C)C(=O)c1ccc(N2CCC3(CC2)C[C@H]3CCN(C)C(=O)[C@](O)(c2ccccc2)C(F)(F)F)cc1Cl [Example 7-25, 2-chloro-N,N-dimethyl-4-((S)-1-(2-((R)-3,3,3-trifluoro-2-hydroxy-N-methyl-2-phenylpropanamido)ethyl)-6-azaspiro[2.5]octan-6-yl)benzamide]
6100	32	1020	31		CN(CC[C@@H]1CC12CCN(c1ccc(C(=O)NC3CC3)c(Cl)c1)CC2)C(=O)[C@](O)(c1ccccc1)C(F)(F)F [Example 7-26, 2-chloro-N-cyclopropyl-4-((S)-1-(2-((R)-3,3,3-trifluoro-2-hydroxy-N-methyl-2-phenylpropanamido)ethyl)-6-azaspiro[2.5]octan-6-yl)benzamide]
	5	1870	32	No IP	COc1cccc([C@@](O)(C(=O)N(C)CC[C@@H]2CC23CCN(c2ccc(C(=O)NC4CC4)c(Cl)c2)CC3)C(F)(F)F)c1 [Example 7-27, 2-chloro-N-cyclopropyl-4-((S)-1-(2-((R)-3,3,3-trifluoro-2-hydroxy-2-(3-methoxyphenyl)-N-methylpropanamido)ethyl)-6-azaspiro[2.5]octan-6-yl)benzamide]
	6	1620	31	No IP	CC(C)NC(=O)c1ccc(N2CCC3(CC2)C[C@H]3CCN(C)C(=O)[C@](O)(c2ccccc2)C(F)(F)F)cc1Cl [Example 7-28, 2-chloro-N-isopropyl-4-((S)-1-(2-((R)-3,3,3-trifluoro-2-hydroxy-N-methyl-2-phenylpropanamido)ethyl)-6-azaspiro[2.5]octan-6-yl)benzamide]
	5	611	40	No IP	CC(C)N(C)C(=O)c1ccc(N2CCC3(CC2)C[C@H]3CCN(C)C(=O)[C@](O)(c2ccccc2)C(F)(F)F)cc1Cl [Example 7-29, 2-chloro-N-isopropyl-N-methyl-4-((S)-1-(2-((R)-3,3,3-trifluoro-2-hydroxy-N-methyl-2-phenylpropanamido)ethyl)-6-azaspiro[2.5]octan-6-yl)benzamide]
	0	557	27	No IP	COc1cccc([C@@](O)(C(=O)N(C)CC[C@@H]2CC23CCN(c2ccc(C(=O)N(C)C(C)C)c(Cl)c2)CC3)C(F)(F)F)c1 [Example 7-30, 2-chloro-N-isopropyl-N-methyl-4-((S)-1-(2-((R)-3,3,3-trifluoro-2-hydroxy-2-(3-methoxy-phenyl)-N-methyl-propanamido)ethyl)-6-azaspiro[2.5]octan-6-yl)benzamide]
	1	304	49	No IP	COc1cccc([C@@](O)(C(=O)NCC[C@H]2CC23CCN(c2ccc(C(=O)N(C)C(C)C)c(Cl)c2)CC3)C(F)(F)F)c1 [Example 7-31, 2-chloro-N-isopropyl-N-methyl-4-((R)-1-(2-((R)-3,3,3-trifluoro-2-hydroxy-2-(3-methoxy-phenyl)propanamido)ethyl)-6-azaspiro[2.5]octan-6-yl)benzamide]
	17	284	69	No IP	COc1cccc([C@@](O)(C(=O)NCC[C@H]2CC23CCN(c2ccc(C(=O)N(C)C)c(Cl)c2)CC3)C(F)(F)F)c1 [Example 7-32, 2-chloro-N,N-dimethyl-4-((R)-1-(2-((R)-3,3,3-trifluoro-2-hydroxy-2-(3-methoxyphenyl)propanamido)ethyl)-6-azaspiro[2.5]octan-6-yl)benzamide]
	0	136	44	No IP	CN(C)C(=O)c1ccc(N2CCC3(CC2)CC3CCCN(C)C(=O)[C@](O)(c2ccccc2)C(F)(F)F)cc1Cl (stereo partly drawn) [Example 7-33, 2-chloro-N,N-dimethyl-4-(1-(3-((R)-3,3,3-trifluoro-2-hydroxy-N-methyl-2-phenylpropanamido)propyl)-6-azaspiro[2.5]octan-6-yl)benzamide]
	0	264	23	No IP	CN(C)C(=O)c1ccc(N2CCC3(CC2)CC3CCCN(C)C(=O)C(C)(C)c2ccccc2)cc1Cl (stereo not shown) [Example 7-34, 2-chloro-4-(1-(3-(N,2-dimethyl-2-phenylpropanamido)propyl)-6-azaspiro[2.5]octan-6-yl)-N,N-dimethylbenzamide]
	0	435	46	No IP	CN(C)C(=O)c1ccc(N2CCC3(CC2)CC3CCCNC(=O)[C@](O)(c2ccccc2)C(F)(F)F)cc1Cl (stereo partly drawn) [Example 7-35, 2-chloro-N,N-dimethyl-4-(1-(3-((R)-3,3,3-trifluoro-2-hydroxy-2-phenylpropanamido)propyl)-6-azaspiro[2.5]octan-6-yl)benzamide]
	0	525	57	No IP	CN(C)C(=O)c1ccc(N2CCC3(CC2)CC3CCCNC(=O)C(C)(C)c2ccccc2)cc1Cl (stereo not shown) [Example 7-36, 2-chloro-N,N-dimethyl-4-(1-(3-(2-methyl-2-phenylpropanamido)propyl)-6-azaspiro[2.5]octan-6-yl)benzamide]
	16	201	82	No IP	COc1cccc([C@@](O)(C(=O)NC2(CCC3CCN(c4ccc(C(=O)N(C)C)c(Cl)n4)CC3)CC2)C(F)(F)F)c1 [Example 8-1, (R)-2-chloro-N,N-dimethyl-6-(4-(2-(1-(3,3,3-trifluoro-2-hydroxy-2-(3-methoxyphenyl)propanamido)cyclopropyl)ethyl)piperidin-1-yl)nicotinamide]
	0	16	37	No IP	COc1cccc([C@@](O)(C(=O)N(C)CCCC2(C)CCN(c3ccc(C(=O)N(C)C)c(Cl)n3)CC2)C(F)(F)F)c1 [Example 9-1, (R)-2-chloro-N,N-dimethyl-6-(4-methyl-4-(3-(3,3,3-trifluoro-2-hydroxy-2-(3-methoxyphenyl)-N-methylpropanamido)propyl)piperidin-1-yl)nicotinamide]
441	21	18	47		CN(C)C(=O)c1ccc(N2CCC(C)(CCCN(C)C(=O)[C@](O)(c3ccccc3)C(F)(F)F)CC2)nc1Cl [Example 9-2, (R)-2-chloro-N,N-dimethyl-6-(4-methyl-4-(3-(3,3,3-trifluroo-2-hydroxy-N-methyl-2-phenylpropanamido)propyl)piper-idin-1-yl)nicotinamide]
198	31	14	94		CN(C)C(=O)c1ccc(N2CCC(C)(CCCN(C)C(=O)[C@]3(c4ccccc4)CCCO3)CC2)nc1Cl [Example 9-3, (R)-2-chloro-N,N-dimethyl-6-(4-methyl-4-(3-(N-methyl-2-phenyltetrahydrofuran-2-carboxamido)propyl)piperidin-1-yl)nicotinamide]

Reference: US10961215B2, “N-aryl and N-heteroaryl piperidine derivatives as liver X receptor beta agonists, compositions, and their use” (Merck Sharp & Dohme Corp., priority 2016, dated 2021)
